Values joined by “and” are separate entries in the source; they are usually repeats but may differ in a detail not shown here. Equal values may be shown once. Read-outs that look alike come from different tables or passages of the source.
Tests used:
normal human astrocytes = test: MTT cell viability assay, normal human astrocytes; assay type: cell-based
ERβ target genes = test: RT-qPCR of ERβ target genes in patient derived GSCs; assay type: cell-based, human; settings: 10 μM, 72h, GSC-040815, GSC-031417, RT-qPCR
ERβ [1] = biological target: T1, ERβ (Homo sapiens, UniProt Q92731); test: PolarScreen ER competitive binding assay; settings: based on EC50 values from polar screen ERα and ERβ assays
U251 GBM cells = test: MTT cell viability assay, WT U251 GBM cells; assay type: cell-based, human
ERα = ERα (Homo sapiens, UniProt P03372); test: ERE-Luc reporter gene assay in HEK293T cells expressing ERα; assay type: cell-based; settings: 24 hours
[2] = system: U251 subcutaneous xenograft; settings: 20 mg/kg/day i.p.
GBM cells [3] = test: Annexin V/PI apoptosis assay; assay type: cell-based, human; settings: 20 μM
U251- ERβ KO cells = test: Invasion and colony formation of U251-ERβ KO cells; assay type: cell-based, human
ERβ [4] = biological target: T1, ERβ; test: ERE-Luc reporter gene assay in HEK293T cells expressing ERβ; assay type: cell-based; settings: 24 hours
orthotopic U251 tumor = test: Orthotopic U251 xenograft model; assay type: in vivo, mice; settings: 50 mg/kg/i.p.
[5] = system: GSC-040815 orthotopic tumor; test: Orthotopic xenograft model with patient-derived GSC-040815 cells; assay type: in vivo, SCID mice; settings: 50 mg/kg/i.p.
U251 and U87 cells = test: Colony formation; assay type: cell-based, human; settings: 10 μM
GBM cells [6] = test: GBM cell viability; assay type: cell-based, human; settings: read-out: GBM cell viability IC50
[7] = system: GSC-031417, GSC-012015, and GSC-040815 cells; test: Neurosphere formation assay; assay type: cell-based, human; settings: 20 μM, three GSC model cells
[8] = system: U251 and U87 GBM model cells; test: Matrigel invasion chamber assay; assay type: cell-based, human; settings: 10μM, 22h
ERβ [9] = biological target: T1, ERβ; test: ERE-Luc reporter gene assay in U251 GBM cells expressing ERβ; assay type: cell-based; settings: 24 h
[10] = system: U251 GBM model cells expressing ERβ; test: MTT cell viability assay, U251 GBM model cells expressing ERβ; assay type: cell-based, human; settings: read-out: growth inhibitory activity IC50
[11] = mouse, in vivo, ip, 20 mg/kg
SOX2, and OCT4 = test: Western blotting of stemness markers in GSCs; assay type: cell-based, human
U251-ERβ-KO cells = test: MTT cell viability assay, U251-ERβ-KO cells; assay type: cell-based, human
primary GSCs = test: CellTiter Glo cell viability assay, patient derived GSCs; assay type: cell-based, human; settings: multiple primary GSCs
[12] = no reference given; cited from earlier work
GBM cells [13] = settings: read-out: IC50 in GBM cells, no reference given; cited from earlier work

T1 sequence (Q92731 whole entry): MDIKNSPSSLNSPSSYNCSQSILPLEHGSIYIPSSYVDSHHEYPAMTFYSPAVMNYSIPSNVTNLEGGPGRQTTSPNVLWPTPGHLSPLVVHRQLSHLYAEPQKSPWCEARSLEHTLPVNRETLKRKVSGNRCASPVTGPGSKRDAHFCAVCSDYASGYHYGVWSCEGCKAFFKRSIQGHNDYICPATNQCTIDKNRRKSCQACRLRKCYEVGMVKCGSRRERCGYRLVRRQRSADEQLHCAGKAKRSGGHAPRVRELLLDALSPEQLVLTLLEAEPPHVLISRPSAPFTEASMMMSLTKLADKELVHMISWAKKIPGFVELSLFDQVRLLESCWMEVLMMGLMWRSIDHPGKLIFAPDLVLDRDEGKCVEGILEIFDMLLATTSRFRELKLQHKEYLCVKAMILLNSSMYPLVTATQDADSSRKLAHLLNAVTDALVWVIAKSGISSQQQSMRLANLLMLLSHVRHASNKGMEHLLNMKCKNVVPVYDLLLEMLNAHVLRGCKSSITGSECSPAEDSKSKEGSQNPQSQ
Chain of ERα (P03372 whole entry): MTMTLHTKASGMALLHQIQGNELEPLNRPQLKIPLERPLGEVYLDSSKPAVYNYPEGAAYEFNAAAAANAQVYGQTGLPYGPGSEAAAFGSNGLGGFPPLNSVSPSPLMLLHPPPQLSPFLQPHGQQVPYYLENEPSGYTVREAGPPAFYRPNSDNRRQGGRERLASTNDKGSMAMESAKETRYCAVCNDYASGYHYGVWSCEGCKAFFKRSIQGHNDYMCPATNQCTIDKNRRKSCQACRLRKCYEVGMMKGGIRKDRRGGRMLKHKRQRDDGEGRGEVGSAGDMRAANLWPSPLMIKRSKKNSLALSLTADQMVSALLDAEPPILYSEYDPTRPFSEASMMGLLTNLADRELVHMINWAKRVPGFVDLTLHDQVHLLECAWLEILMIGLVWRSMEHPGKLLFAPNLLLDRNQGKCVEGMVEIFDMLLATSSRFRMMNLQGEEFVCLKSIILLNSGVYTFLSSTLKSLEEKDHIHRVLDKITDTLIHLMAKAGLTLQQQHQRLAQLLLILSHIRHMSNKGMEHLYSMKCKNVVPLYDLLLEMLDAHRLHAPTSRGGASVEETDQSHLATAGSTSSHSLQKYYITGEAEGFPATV

## CCN(CC)CCCC(C)NC(=O)c1ccc2c(c1)C(=O)c1ccccc1C2=O (stereo not shown) [CIDD-0149897]
Normal human astrocytes
  effect on viability of normal human astrocytes: little to no effect
Normal human astrocytes; listed as CIDD-014987
  effect on viability of normal human astrocytes: no/limited effect
ERβ target genes
  expression of ERβ target genes: activation of ERβ target genes
ERβ [1]
  selectivity for ERβ over ERα: 40 fold
U251 GBM cells
  effect on U251 cell viability: significantly decreased
ERα
  ERα reporter activation: no activation of ERα reporter
[2]
  ERβ target genes in tumor tissues, RT-qPCR: significant increase
[2]; 5 days/week
  tumor progression compared to vehicle: significantly reduced
[2]; after 35 days of treatment
  tumor weights compared to vehicle: significantly smaller
[2]; tumors
  Ki-67 positive proliferating cells, IHC: fewer proliferating cells
GBM cells [3]
  apoptosis of GBM cells: significantly promoted apoptosis
U251- ERβ KO cells
  invasion and colony formation of U251- ERβ KO cells: no significant effect
ERβ [4]
  ERβ reporter activity: enhanced ERβ reporter activity in a dose dependent manner
Orthotopic U251 tumor
  survival of orthotopic U251 tumor bearing mice: significantly increased the survival
Orthotopic U251 tumor; tumor sections
  Ki-67 positive proliferating cells, IHC: fewer proliferating cells
[5]
  Ki-67 positive cells, IHC: significantly decreased
  survival of GSC tumor-bearing mice: significantly enhanced the survival
U251 and U87 cells
  long-term colony formation: significantly reduced
GBM cells [6]
  IC50: 7 to 15 µM
[7]
  neurosphere growth: significantly reduced
[8]
  GBM cells invasion: significantly reduced
ERβ [9]
  ERβ reporter activity: enhanced ERβ reporter activity in a dose dependent manner in U251 GBM cells
[10]
  IC50: 7.4 µM and ~7.4 µM
[11]
  mean half-life, terminal elimination phase: 9.59 h
  time to maximum blood concentration: less than 15 min
SOX2, and OCT4
  expression of stemness markers: reduced the expression of stemness markers
U251-ERβ-KO cells
  effect on viability of ERβ-KO cells: little to no effect
U251-ERβ-KO cells; listed as CIDD-014987
  effect on viability of ERβ-KO cells: no/limited effect
Primary GSCs
  cytotoxic activity against primary GSCs: potent cytotoxic activity

## Oc1ccc([C@H]2COc3cc(O)ccc3C2)cc1 [S-equol]
[12]
  brain penetration: lacks brain penetration
GBM cells [13]
  IC50: 100 to 200 µM
